Reference: patent US7018989B2, “Chemical compounds” (University College Cardiff Consultants, LTD, priority 1995, dated 2006)

Tested on: HIV-2
Experiment: Inhibition of HIV-2 in CEM/TK- cells
Format: cell-based
Settings: Table 6; mean of two or more repeat experiments; read-out: HIV2 CEM-TK-: EC50 for inhibition of HIV-2 in CEM/TK^− cells
Description: (§1) Cells were infected with HIV-1 as previously described [Balzarini et al. AIDS (1991), 5, 21–28]. Briefly, 5×10^5 cells per milliliter were infected with HIV-1 or HIV-2 at 100 CCID50 (50% cell culture infective dose) per milliliter of cell suspension. Then 100 μL of the infected cell suspension was transferred to microtiter plate wells and mixed with 100 μL of the appropriate dilutions of the test compounds. After 4 days giant cell formation was recorded microscopically in the HIV-infected cell cultures [CEM], and after 5 days the number of viable cells was determined by trypan blue staining of the HIV-infected cell cultures [MT4].
(§2) The data columns are, in order: • HIV1 MT4: EC50 in μM for inhibition of HIV-1 in MT4 cells. • HIV2 MT4: EC50 in μM for inhibition of HIV-2 in MT4 cells. • CC50 MT4: CC50 in μM for toxicity to MT-4 cells. • HIV1 CEM: EC50 in μM for inhibition of HIV-1 in CEM cells. • HIV2 CEM: EC50 in μM for inhibition of HIV-2 in CEM cells. • HIV2 CEM-TK-: EC50 in μM for inhibition of HIV-2 in CEM/TK^− cells. • CC50 CEM: CC50 in μM for toxicity to CEM cells. • EC50 MSV: EC50 in μM for inhibition of MSV • MCC MSV: Minimum cytotoxic concentration in MSV assay
In the case of `Cc1cn(C2C=CC(COP(=O)(O)O)O2)c(=O)[nH]c1=O` (stereo not drawn) [Compound 1131], the EC50 is reported as 50 µM.
`COC(=O)[C@@H](C)NP(=O)(OCC1C=CC(n2cc(C)c(=O)[nH]c2=O)O1)Oc1ccccc1` (stereo partly drawn) [Compound 932] showed an EC50 of 2.5 µM.
`Cc1cn(C2C=CC(COP(=O)(Oc3ccccc3)Oc3ccccc3)O2)c(=O)[nH]c1=O` (stereo not drawn) [Compound 880] gave an EC50 of 75 µM.
`CCO[PH](=O)OCC1C=CC(n2cc(C)c(=O)[nH]c2=O)O1` (stereo not drawn) [Compound 788] showed an EC50 of 30 µM.
Work on `Cc1cn([C@H]2C=C[C@@H](COP(=O)(O)NCC(=O)O)O2)c(=O)[nH]c1=O` [Compound 1163, 2′,3′-dideoxy-2′,3′-didehydrothymidine 5′-(glycinyl phosphate)] yielded an EC50 of 130 µM.
`CCCCCCO[PH](=O)OCC1C=CC(n2cc(C)c(=O)[nH]c2=O)O1` (stereo not drawn) [Compound 786] showed an EC50 of 30 µM.
In the case of `CCCCCCNP(=O)(OCC1C=CC(n2cc(C)c(=O)[nH]c2=O)O1)Oc1ccccc1` (stereo not drawn) [Compound 859], the EC50 is reported as > 50 µM.
For `CCCCCCOP(=O)(OCCCCCC)OCC1C=CC(n2cc(C)c(=O)[nH]c2=O)O1` (stereo not drawn) [Compound 321], the EC50 was > 42 µM.
Compound `CCCCNP(=O)(OCC1C=CC(n2cc(C)c(=O)[nH]c2=O)O1)Oc1ccccc1` (stereo not drawn) [Compound 840] has an EC50 of 125 µM.

Tested on: CEM cells
Experiment: Toxicity to CEM cells
Format: cell-based, human
Settings: Table 6; mean of two or more repeat experiments
Description: as §1, §2
In the case of `Cc1cn(C2C=CC(COP(=O)(O)O)O2)c(=O)[nH]c1=O` (stereo not drawn) [Compound 1131], the CC50 is reported as ≥ 250 µM.
In the case of `COC(=O)[C@@H](C)NP(=O)(OCC1C=CC(n2cc(C)c(=O)[nH]c2=O)O1)Oc1ccccc1` (stereo partly drawn) [Compound 932], the CC50 is reported as > 250 µM.
With `Cc1cn(C2C=CC(COP(=O)(Oc3ccccc3)Oc3ccccc3)O2)c(=O)[nH]c1=O` (stereo not drawn) [Compound 880] the CC50 was ≥ 250 µM.
`CCO[PH](=O)OCC1C=CC(n2cc(C)c(=O)[nH]c2=O)O1` (stereo not drawn) [Compound 788] gave a CC50 of 115 µM.
With `Cc1cn([C@H]2C=C[C@@H](COP(=O)(O)NCC(=O)O)O2)c(=O)[nH]c1=O` [Compound 1163, 2′,3′-dideoxy-2′,3′-didehydrothymidine 5′-(glycinyl phosphate)] the CC50 was > 250 µM.
With `CCCCCCO[PH](=O)OCC1C=CC(n2cc(C)c(=O)[nH]c2=O)O1` (stereo not drawn) [Compound 786] the CC50 was 150 µM.
For `CCCCCCNP(=O)(OCC1C=CC(n2cc(C)c(=O)[nH]c2=O)O1)Oc1ccccc1` (stereo not drawn) [Compound 859], the CC50 was 145 µM.
`CCCCCCOP(=O)(OCCCCCC)OCC1C=CC(n2cc(C)c(=O)[nH]c2=O)O1` (stereo not drawn) [Compound 321] gave a CC50 of 36 µM.
In the case of `CCCCNP(=O)(OCC1C=CC(n2cc(C)c(=O)[nH]c2=O)O1)Oc1ccccc1` (stereo not drawn) [Compound 840], the CC50 is reported as > 250 µM.

Tested on: HIV-1
Experiment: microbe, parasite or virus in culture
Settings: read-out: HIV1 CEM: EC50 for inhibition of HIV-1 in CEM cells; Table 6; mean of two or more repeat experiments
Description: as §1, §2
With `Cc1cn(C2C=CC(COP(=O)(O)O)O2)c(=O)[nH]c1=O` (stereo not drawn) [Compound 1131] the EC50 was 400 nM.
For `COC(=O)[C@@H](C)NP(=O)(OCC1C=CC(n2cc(C)c(=O)[nH]c2=O)O1)Oc1ccccc1` (stereo partly drawn) [Compound 932], the EC50 was 3000 nM.
With `CCO[PH](=O)OCC1C=CC(n2cc(C)c(=O)[nH]c2=O)O1` (stereo not drawn) [Compound 788] the EC50 was 650 nM.
`Cc1cn([C@H]2C=C[C@@H](COP(=O)(O)NCC(=O)O)O2)c(=O)[nH]c1=O` [Compound 1163, 2′,3′-dideoxy-2′,3′-didehydrothymidine 5′-(glycinyl phosphate)] showed an EC50 of 2000 nM.
Work on `CCCCCCO[PH](=O)OCC1C=CC(n2cc(C)c(=O)[nH]c2=O)O1` (stereo not drawn) [Compound 786] yielded an EC50 of 600 nM.
With `CCCCCCNP(=O)(OCC1C=CC(n2cc(C)c(=O)[nH]c2=O)O1)Oc1ccccc1` (stereo not drawn) [Compound 859] the EC50 was > 50000 nM.
In the case of `CCCCCCOP(=O)(OCCCCCC)OCC1C=CC(n2cc(C)c(=O)[nH]c2=O)O1` (stereo not drawn) [Compound 321], the EC50 is reported as > 42000 nM.
Compound `CCCCNP(=O)(OCC1C=CC(n2cc(C)c(=O)[nH]c2=O)O1)Oc1ccccc1` (stereo not drawn) [Compound 840] has an EC50 of 140000 nM.

Tested on: MSV
Experiment: Inhibition of MSV (in vitro)
Format: cell-based, Moloney Sarcoma Virus
Settings: Table 6
Source text: as §2
With `Cc1cn(C2C=CC(COP(=O)(O)O)O2)c(=O)[nH]c1=O` (stereo not drawn) [Compound 1131] the EC50 was 6.7 µM.
For `COC(=O)[C@@H](C)NP(=O)(OCC1C=CC(n2cc(C)c(=O)[nH]c2=O)O1)Oc1ccccc1` (stereo partly drawn) [Compound 932], the EC50 was ≥ 100 µM.

Tested on: not listed separately
Experiment: Minimum cytotoxic concentration in MSV assay
Format: cell-based
Settings: Table 6
Source text: as §2, with “CEM/TK^-” for “CEM/TK^−”, “[…]:” for “MSV • MCC MSV:”
With `Cc1cn(C2C=CC(COP(=O)(O)O)O2)c(=O)[nH]c1=O` (stereo not drawn) [Compound 1131] the “MCC MSV: Minimum cytotoxic concentration in MSV assay” value was >100.
With `COC(=O)[C@@H](C)NP(=O)(OCC1C=CC(n2cc(C)c(=O)[nH]c2=O)O1)Oc1ccccc1` (stereo partly drawn) [Compound 932] the “MCC MSV: Minimum cytotoxic concentration in MSV assay” value was >100.

Tested on: HIV-2
Experiment: Inhibition of HIV-2 in CEM cells (giant cell formation)
Format: cell-based
Settings: Table 6; mean of two or more repeat experiments; read-out: HIV2 CEM: EC50 for inhibition of HIV-2 in CEM cells
Description: as §1, §2
For `Cc1cn(C2C=CC(COP(=O)(O)O)O2)c(=O)[nH]c1=O` (stereo not drawn) [Compound 1131], the EC50 was 0.6 µM.
Work on `COC(=O)[C@@H](C)NP(=O)(OCC1C=CC(n2cc(C)c(=O)[nH]c2=O)O1)Oc1ccccc1` (stereo partly drawn) [Compound 932] yielded an EC50 of 2 µM.
`Cc1cn(C2C=CC(COP(=O)(Oc3ccccc3)Oc3ccccc3)O2)c(=O)[nH]c1=O` (stereo not drawn) [Compound 880] gave an EC50 of 25 µM.
In the case of `CCO[PH](=O)OCC1C=CC(n2cc(C)c(=O)[nH]c2=O)O1` (stereo not drawn) [Compound 788], the EC50 is reported as 0.6 µM.
`Cc1cn([C@H]2C=C[C@@H](COP(=O)(O)NCC(=O)O)O2)c(=O)[nH]c1=O` [Compound 1163, 2′,3′-dideoxy-2′,3′-didehydrothymidine 5′-(glycinyl phosphate)] showed an EC50 of 5 µM.
`CCCCCCO[PH](=O)OCC1C=CC(n2cc(C)c(=O)[nH]c2=O)O1` (stereo not drawn) [Compound 786] showed an EC50 of 0.5 µM.
With `CCCCCCNP(=O)(OCC1C=CC(n2cc(C)c(=O)[nH]c2=O)O1)Oc1ccccc1` (stereo not drawn) [Compound 859] the EC50 was > 50 µM.
With `CCCCCCOP(=O)(OCCCCCC)OCC1C=CC(n2cc(C)c(=O)[nH]c2=O)O1` (stereo not drawn) [Compound 321] the EC50 was > 42 µM.
Work on `CCCCNP(=O)(OCC1C=CC(n2cc(C)c(=O)[nH]c2=O)O1)Oc1ccccc1` (stereo not drawn) [Compound 840] yielded an EC50 of 100 µM.
